Values quoted from earlier work, collected in patent US20160088844A1 (priority 2013, published 2016).

Test system: roots of plants; seeds of a variety of species
Conditions: in vivo

For `Cn1c(=O)c2c(ncn2C)n(C)c1=O` [caffeine], the “mitosis in the roots of plants” value is given as “inhibit mitosis” and the “seed germination in a variety of species” value is given as “inhibit seed germination”.
